US20140303092A1 (CHIMERIX, INC., priority 2011, published 2014)

Assay: Study HDP-CDV-201: safety and tolerability (adverse events, laboratory abnormalities, discontinuations)
Assay type: in vivo, human (adult allogeneic HSCT recipients)
Description: Clinical Studies of HDP-CDV were performed and described in detail in the following Examples. For example, HDP-CDV-201 is a placebo-controlled, dose-escalating trial in HSCT CMV (R+) recipients, evaluating the ability of HDP-CDV to prevent or control CMV infection was carried out. Five cohorts were established in which participants or subjects received either placebo or the HDP-CDV orally, in doses ranging from 40 mg weekly (QW) to 200 mg twice weekly (BIW). Subjects who were post-HSCT were enrolled at the time of engraftment and randomized to HDP-CDV or placebo (3 to 1 ratio) and received blinded therapy until approximately 100 day post-transplantation. HDP-CDV doses were 40 mg QW, 100 mg QW, 200 mg QW, 200 mg BIW and 100 mg BIW. Escalation to the next dose was decided by the data monitoring committee after review of the safety data from the previous Cohort. Subjects who developed CMV disease or CMV infection requiring pre-emptive therapy with local standard of care were discontinued from blinded therapy and followed for 4 weeks. Subjects who completed treatment with blinded therapy were followed for 8 weeks post-therapy.
Data from Study HDP-CDV-201 also provided characterization of the safety and tolerability profile of HDP-CDV when administered for the prevention or control of CMV infection in high risk (R^+) post-HSCT adult subjects.
The Safety population (SAFETY) included all randomized subjects who took at least one dose of study treatment. This population was used to summarize safety outcomes based on the treatment actually received, in cases where a subject was treated contrary to the randomization schedule.
The safety and tolerability profile of HDP-CDV, including subject demographics and Baseline characteristics; the AE profile; and laboratory abnormalities of interest were analyzed in the cohorts followed in this investigation.
Subjects completing the treatment period received a full course of study medication; those completing the entire study attended visits through 8 weeks of follow up. Subjects who discontinued treatment may have done so for protocol specified reasons (e.g. development of clinically significant CMV infection requiring preemptive treatment with excluded anti-CMV medications) or for other reasons (e.g., withdrawal, adverse events, loss to follow-up). The disposition of subjects in Study HDP-CDV-201 during the double-blind, placebo-controlled treatment period (through Week 11) is listed by dosing Cohort in TABLE 23.
Adverse events were examined by severity to ensure that all safety signals were identified in this study population. Because of the frequency of events in HSCT recipients, particular attention was given to evaluation of Grade 3 […], 4 (severe), and 5 (fatal) adverse events.
Only those preferred terms for which at least one Grade 3 or higher event was experienced in any treatment group are listed. Cytomegalovirus-related AEs are excluded from this analysis.
HDP-CDV is a lipid conjugate of CDV. Because CDV is known to have adverse effects on renal function and bone marrow, decreased GFR and persistent neutropenia were identified as AEs of special interest. Key renal and hematological (TABLE 30) laboratory parameters were measured and listed below by Study HDP-CDV-201 treatment groups. TABLE 30 includes abnormal levels of serum creatinine, neutrophils, platelets, WBCs, and hemoglobin and includes data at Screening and during the treatment period.
A common metric for unit based dosing of medications is by weight (mg/kg). When the distribution of weights was examined for all subjects participating in the study, the median was 78 kg and the lower 25th percentile weight was approximately 65 kg, which translates to a cut-off of ˜3 mg/kg for a 200 mg total weekly dose. Based upon this approach, a cut-off of 3 mg/kg was used to assess the frequency of diarrhea and associated GI AEs reported for the subjects in Cohorts 3 or 4a (TABLE 40).

## CCCCCCCCCCCCCCCCOCCCOP(=O)(O)COC(CO)Cn1ccc(N)nc1=O (stereo not drawn) [HDP-CDV]
100 mg BIW
  TEAE Hypokalaemia, Grade 3: 2 (4.0%)
  TEAE Hypokalaemia, Grade 4: 0
  TEAE Hypokalaemia, Grade 5: 0
  TEAE Hyponatraemia, Frequency: 1 (2.0%)
  TEAE Hyponatraemia, Grade 2: 0
  TEAE Hyponatraemia, Grade 3: 0
  TEAE Hyponatraemia, Grade 4: 0
  TEAE Hyponatraemia, Grade 5: 0
  TEAE LFT Abnormal, Frequency: 2 (4.0%)
  TEAE LFT Abnormal, Grade 2: 1 (2.0%)
  TEAE LFT Abnormal, Grade 3: 0
  TEAE LFT Abnormal, Grade 4: 0
  TEAE LFT Abnormal, Grade 5: 0
  TEAE Leukocytosis, Frequency: 2 (4.0%)
  TEAE Leukocytosis, Grade 2: 0
  TEAE Leukocytosis, Grade 3: 1 (2.0%)
  TEAE Leukocytosis, Grade 4: 0
  TEAE Leukocytosis, Grade 5: 0
  TEAE Nausea, Frequency: 17 (34.0%)
  TEAE Nausea, Grade 2: 9 (18.0%)
  TEAE Nausea, Grade 3: 2 (4.0%)
  TEAE Nausea, Grade 4: 0
  TEAE Nausea, Grade 5: 0
  TEAE Neutropenia, Frequency: 10 (20.0%)
  TEAE Neutropenia, Grade 2: 2 (4.0%)
  TEAE Neutropenia, Grade 3: 5 (10.0%)
  TEAE Neutropenia, Grade 4: 2 (4.0%)
  TEAE Neutropenia, Grade 5: 0
  TEAE Pneumonia, Frequency: 5 (10.0%)
  TEAE Pneumonia, Grade 2: 1 (2.0%)
  TEAE Pneumonia, Grade 3: 3 (6.0%)
  TEAE Pneumonia, Grade 4: 0
  TEAE Pneumonia, Grade 5: 1 (2.0%)
  TEAE Pyrexia, Frequency: 10 (20.0%)
  TEAE Pyrexia, Grade 2: 4 (8.0%)
  TEAE Pyrexia, Grade 3: 1 (2%)
  TEAE Pyrexia, Grade 4: 0
  TEAE Pyrexia, Grade 5: 0
  TEAE Renal Failure, Frequency: 5 (10.0%)
  TEAE Renal Failure, Grade 2: 1 (2.0%)
  TEAE Renal Failure, Grade 3: 1 (2.0%)
  TEAE Renal Failure, Grade 4: 1 (2.0%)
  TEAE Renal Failure, Grade 5: 0
  TEAE Staphylococcal Bacteremia, Frequency: 6 (12.0%)
  TEAE Staphylococcal Bacteremia, Grade 2: 2 (4.0%)
  TEAE Staphylococcal Bacteremia, Grade 3: 3 (6.0%)
  TEAE Staphylococcal Bacteremia, Grade 4: 0
  TEAE Staphylococcal Bacteremia, Grade 5: 0
  TEAE Thrombocytopenia, Frequency: 7 (14.0%)
  TEAE Thrombocytopenia, Grade 2: 1 (2.0%)
  TEAE Thrombocytopenia, Grade 3: 1 (2.0%)
  TEAE Thrombocytopenia, Grade 4: 2 (4.0%)
  TEAE Thrombocytopenia, Grade 5: 0
  TEAE Vomiting, Frequency: 22 (44.0%)
  TEAE Vomiting, Grade 2: 8 (16.0%)
  TEAE Vomiting, Grade 3: 2 (4.0%)
  TEAE Vomiting, Grade 4: 0
  TEAE Vomiting, Grade 5: 0
  subjects requiring treatment with steroids during the study: 72%
100 mg BIW Cohort
  subjects who interrupted HDP-CDV due to an adverse event: 17 out of 50
100 mg BIW, n = 50
  Subjects Reporting Diarrhea as an AE: 26 (52.0%)
100 mg BIW, active treatment period
  Discontinuation: Death: 4 (8.0%) Subject n (%)
100 mg BIW, active treatment period through Week 11
  Discontinuation: Adverse event: 8 (16.0%) Subject n (%)
100 mg QW
  TEAE ALT increased, Frequency: 1 (3.7%)
  TEAE ALT increased, Grade 2: 0
  TEAE ALT increased, Grade 3: 1 (3.7%)
  TEAE ALT increased, Grade 4: 0
  TEAE ALT increased, Grade 5: 0
  TEAE AML, Recurrent, Frequency: 0
  TEAE AML, Recurrent, Grade 2: 0
  TEAE AML, Recurrent, Grade 3: 0
  TEAE AML, Recurrent, Grade 4: 0
  TEAE AML, Recurrent, Grade 5: 0
  TEAE AST increased, Frequency: 1 (3.7%)
  TEAE AST increased, Grade 2: 1 (3.7%)
  TEAE AST increased, Grade 3: 0
  TEAE AST increased, Grade 4: 0
  TEAE AST increased, Grade 5: 0
  TEAE Abdominal pain, Frequency: 2 (7.4%)
  TEAE Abdominal pain, Grade 2: 0
  TEAE Abdominal pain, Grade 3: 1 (3.7%)
  TEAE Abdominal pain, Grade 4: 0
  TEAE Abdominal pain, Grade 5: 0
  TEAE Acute GVHD, Frequency: 7 (25.5%)
  TEAE Acute GVHD, Grade 2: 4 (14.8%)
  TEAE Acute GVHD, Grade 3: 2 (7.3%)
  TEAE Arthralgias, Frequency: 3 (11.1%)
  TEAE Arthralgias, Grade 2: 0
  TEAE Arthralgias, Grade 3: 0
  TEAE Arthralgias, Grade 4: 0
  TEAE Arthralgias, Grade 5: 0
  TEAE Back Pain, Frequency: 2 (7.4%)
  TEAE Back Pain, Grade 2: 0
  TEAE Back Pain, Grade 3: 0
  TEAE Back Pain, Grade 4: 0
  TEAE Back Pain, Grade 5: 0
  TEAE Decreased appetite, Frequency: 5 (18.5%)
  TEAE Decreased appetite, Grade 2: 2 (7.4%)
  TEAE Decreased appetite, Grade 3: 0
  TEAE Decreased appetite, Grade 4: 0
  TEAE Decreased appetite, Grade 5: 0
  TEAE Diarrhea, Frequency: 8 (29.6%)
  TEAE Diarrhea, Grade 2: 3 (11.1%)
  TEAE Diarrhea, Grade 3: 0
  TEAE Diarrhea, Grade 4: 0
  TEAE Diarrhea, Grade 5: 0
  TEAE Fatigue, Frequency: 3 (11.1%)
  TEAE Fatigue, Grade 2: 0
  TEAE Fatigue, Grade 3: 0
  TEAE Fatigue, Grade 4: 0
  TEAE Fatigue, Grade 5: 0
